System: estrous cycle of the rat
Experiment: Rat Estrous Cyclicity Model
Assay type: in vivo
Description: The Rat Estrous Cyclicity Model is described in detail in Hahn et al., Biological Assays Utilized to Characterize LHRH and its Analogs. In: LHRH and its Analogs, Contraception and Therapeutic Applications (Eds. Vickery B H, Nestor J J, and Hafez ESE), pp. 49-60. MTP Press Ltd, Lancaster, England, 1984, the contents of which are incorporated herein by reference. The model is used to assess the pharnacodynamic effect which an effective serum level of azaline B (at least 2.0 ng/ml), provided by the administration of a sustained release device of the invention, has on the estrous cycle of the rat. When the minimum effective concentration of azaline B is present in serum, the estrus phase of the estrous cycle of the rat is suppressed and the rat remains in the diestrus phase of the estrous cycle.
Microparticles containing an effective amount of azaline B were prepared according to the “Particulate Method,” described above, and the methods of Examples 1 and 3. The presence of azaline B activity was measured as the percent of a test group which remained in the diestrus phase of the estrous cycle. Animals were subcutaneously injected with equal amounts of azaline B either encapsulated in a microparticle or unencapsulated. […] The results are depicted in FIGS. 1 and 2 which show a plot of the percent of animals per treatment group in diestrus for each formulation evaluated versus time.

In the case of “Ac-D-Nal′-D-Cpa^2-D-Pal^3-Ser^4-Aph^5(atz)-D-Aph^6(atz)-Leu^7-Ilys^8-Pro^9-D-Ala^10 [azaline B]”, the “effective serum level of azaline B (minimum effective concentration suppressing estrus phase)” value was “at least 2.0 ng/ml”.

Source: patent US6455074B1, “Methods for fabricating polymer-based controlled release devices” (Alkermes Controlled Therapeutics, Inc., priority 1997, dated 2002)
